In patent US20240092779A1, “USP1 INHIBITORS AND USES THEREOF” (Zentaur Therapeutics USA Inc., priority 2022, published 2024) one finds IC50 and GI50 data, which are given here for 17 compounds.

The IC50 is the point on the concentration scale where inhibition reaches its midpoint. The GI50 is the concentration giving 50% growth inhibition. High values mean less potent growth inhibition, low ones more potent growth inhibition.

The subject of one assay is HCC1806 Ub-PCNA (USP1). The experiment in a line: USP1 Western Blot Protocol (HCC1806 Ub-PCNA). The following applies: HCC1806 cells, 4 hours. Type of assay: cell-based. The source says:
USP1 Western Blot Protocol (HCC1806 Ub-PCNA)
USP1 is a deubiquitinase that catalyze the hydrolysis of iso-peptide bond between ubiquitin and the substrate proteins. Inhibition of USP1 activity results in accumulation of mono-ubiquitinated substrate such as Ub-PCNA. A cell assay was set up to determine the cellular potency of USP1 compounds by monitoring the accumulation of Ub-PCNA. The signal intensity was detected by a specific Ub-PCNA antibody through Western-blot analysis.
The assay was initiated by seeding HCC1806 cells (ATCC, CRL-2335) into 6-well plates (Corning, 3516), with a seeding density of 3×10^5 cells per well and 2 mL RPMI 1640 culture medium (Gibco, 11875119). The plates were incubated overnight at 37° C. and 5% CO2. Compounds, solubilized in DMSO (Solarbio, D8371) as 1 mM stock solution, were diluted in 4-fold steps for 5-cencentration point dose response plus a no-compound DMSO control. Diluted compounds (2 μL) were transferred into assay wells (with a final DMSO concentration of −0.1%) and the resulted assay plates incubated at 37° C. and 5% CO2 for 4 hours. After aspiration of culture medium, 100 μL of 4° C. RIPA lysis buffer (Boston BioProducts, BP-115D) supplemented with vendor recommended concentrations of protease (Roche, 4693116001) and phosphatase (Roche, 4906837001) inhibitor, was added to each well and incubated for 10 minutes on the ice. Cells were scrapped loose from the bottom of well with a scraper (Corning, 3008), transferred into a 600 μL EP tube, sonicated using Ultrasound (Qsonica, Q800R3, with 30% energy, 5-second pulse on/off cycles at 4° C., for total 2 minutes), centrifuged 13,000 rpm for 15 minutes at 4° C., and then the supernatant transferred to a new 600 μL EP tube. The total protein concentration was determined using BCA kit following vendor recommended protocol (Solarbio, PC0020-500). Loading samples were prepared by diluting the total protein concentration to 1.5 μg/μL with 5 X NuPAGE SDS loading buffer (Beyotime, P0015L) and RIPA lysis buffer, and boiling at 100° C. for 5 minutes.
15 μg protein from each sample was loaded onto NuPAGE® Novex 4-12% Bis-Tris Midi Gel, 26 W (Invitrogen, WG1403BOX) and electrophoresis was run at 80 V for 30 minutes and 120 V till the end using 1x NuPAGE® MOPS SDS Running Buffer (Novex, NP0001). The gel was then transferred to nitrocellulose membrane using the dry transfer system (iBlot 2 Transfer Stacks, nitrocellulose, D323001) with a program consisting of 20 V for 1 minute, 23 V for 4 minutes and 25 V for 2 minutes. After the membrane was blocked with 5% BSA (Solarbio, A8020) in 1X TBST (CST, 9997S) for 1 hour at room temperature, specific antibodies (Ubiquityl-PCNA antibody (CST, 13439) at 1:500 dilution, PCNA antibody (Santa Cruz, sc-56) at 1:1000 dilution, and GAPDH (CST, 5174) at 1:2000 dilution in 1 X TBST containing 1% BSA) were added and incubated at room temperature for 1.5 hours. After washing the Nitrocellulose membranes with 1 X TBST for 3 times, 10 minutes each time at room temperature, fluorescently labeled secondary antibodies (anti-rabbit IgG, Licor, 926-32211; anti-mouse IgG, LI-COR, 926-68070) at 1:5000 dilution in 1 X TBST containing 1% BSA were added and incubated for 1 hour at room temperature in the dark. The membranes were then rinsed with 1 X TBST and immersed in the RO water. Imaging of band intensity was acquired with Li—COR imaging system (Li—COR, Odyssey clx ES).
Percentage of USP1 inhibition (% Vehicle) was calculated by using following equation examining Ub-PCNA upregulation:
And IC50 was calculated using four-parameter logistic fitting program • Y=Bottom+(Top-Bottom)/(1+10 {circumflex over (()}(LogIC50−X)*Hill Slope)) • X=Log of dose or concentration
(§1) Certain compounds were tested in the assays.
For orientation: In western blotting, separated proteins are transferred to a membrane and probed.

The next assay relates to MDA-MB-436 cells. The experiment in a line: CTG Protocol (MDA-MB-436 GI50), antiproliferative activity. It counts as cell-based, human. The note with it: MDA-MB-436 cells (BRCA1 mutation), 7-day incubation, CellTiter-Glo. Here is the method: CTG Protocol (MDA-MB-436 GI50)
Antiproliferative activity of USP1 inhibitors was determined using breast cancer cell line MDA-MB-436 that harbors BRCA1 mutation. MDA-MB-436 cells (ATCC, HTB-130) was seeded with a seeding density of 1000 cells per well and 95 μL DMEM medium (Gibco, 10566016) into 96-well cell plates (Corning, 3610), and incubated overnight at 37° C. and 5% CO2. Compounds were solubilized in DMSO (Solarbio, D8371) as 10 mM stock solution, and then series diluted (3 folds) with DMSO for 9-point dose-response testing. The resulted series dilutions were then jump-diluted 50-fold by cell culture medium to afford the 20×stock solutions (containing 2% DMSO). Treatment was initiated by adding 5 μL of 20×stock solution to the assay plate and incubated at 37° C. and 5% CO2. At the end of 7-day incubation, cell assay plates were removed from incubation and equilibrated to room temperature (20 min). Then 100 μL of CellTiter-Glo (Promega, G9243) reagent, prepared per manufacturer's protocol, was added to each well, and the resulted plates were centrifuged 1,000 rpm for 1 minute, incubated at room temperature in the dark for 20 minutes, sealed with Perkin Elmer sticky film, and the luminescence signal read by Envision (Perkin Elmer).
Data analysis • a) % Inhibition was calculated using following equation: […]
X: compound concentration; Y: % Inhibition
as §1
In general terms: ATP-based viability assays read luminescence as a measure of living cells.

Consider `COc1ncnc(C2CC2)c1-c1ncc2cc(-c3c(C)cnn3C)c(=O)n(Cc3ccc(-c4nc(C(F)(F)F)cn4C(C)C)cc3)c2n1` [Compound I-165, 2-(4-Cyclopropyl-6-Methoxypyrimidin-5-Yl)-6-(2,4-Dimethylpyrazol-3-Yl)-8-({4-[1-Isopropyl-4-(Trifluoromethyl)Imidazol-2-Yl]Phenyl}Methyl)Pyrido[2,3-d]Pyrimidin-7-One], for which the concentration for half-maximal inhibition (IC50) in the assay on HCC1806 Ub-PCNA (USP1) (Homo sapiens) is 10 to 100 nM. Besides, the concentration for 50% growth inhibition (GI50) with MDA-MB-436 cells (Homo sapiens, 168 h) was in the range of 10 to 100 nM. Compound `COc1ncnc(C2CC2)c1-c1ncc2cc(C)c(=O)n(Cc3ccc(-c4nc(C(F)(F)F)cn4C)cc3)c2n1` [Compound 78, 2-(4-cyclopropyl-6-methoxypyrimidin-5-yl)-6-methyl-8-({4-[1-methyl-4-(trifluoromethyl)imidazo]-2-yl]phenylmethyl)pyrido[2,3-d]pyrimidin-7-one] displayed an IC50 with HCC1806 Ub-PCNA (USP1) of 10 to 100 nM. The compound further had a 50% growth inhibitory concentration (GI50) with MDA-MB-436 cells of 10 to 100 nM. `COc1ncnc(C2CC2)c1-c1ncc2ccc(=O)n(C(C)c3ccc(-c4nc(C(F)(F)F)cn4C)cc3)c2n1` (stereo not drawn) [Compound I-43, 2-(4-Cyclopropyl-6-Methoxypyrimidin-5-Yl)-8-(1-{4-[1-Methyl-4-(Trifluoromethyl)Imidazol-2-Yl]Phenyl}Ethyl)Pyrido[2,3-d]Pyrimidin-7-One] displayed a half-maximal inhibitory concentration (IC50) with HCC1806 Ub-PCNA (USP1) (Homo sapiens) of 10 to 100 nM. In addition, the GI50 with MDA-MB-436 cells (Homo sapiens, 168 h) was in the range of 10 to 100 nM. In turn, `COc1ncnc(C2CC2)c1-c1ncc2cc(-c3nccn3C)c(=O)n(Cc3ccc(-c4nc(C(F)(F)F)cn4C4CC4)cc3)c2n1` [Compound I-158] registered an IC50 in the assay with HCC1806 Ub-PCNA (USP1) (Homo sapiens) of 10 to 100 nM. The same compound yielded a 50% growth inhibitory concentration (GI50) in the assay with MDA-MB-436 cells (Homo sapiens, 168 h) of 10 to 100 nM. For `COc1ncnc(C2CC2)c1-c1ncc2cc(Cl)c(=O)n(Cc3ccc(-c4nc(C(F)(F)F)cn4C)cc3)c2n1` [Compound 79, 6-Chloro-2-(4-Cyclopropyl-6-Methoxypyrimidin-5-Yl)-8-({4-[1-Methyl-4-(Trifluoromethyl)Imidazol-2-Yl]Phenyl}Methyl)Pyrido[2,3-d]Pyrimidin-7-One], in the assay on HCC1806 Ub-PCNA (USP1) (Homo sapiens), the IC50 was in the range of 10 to 100 nM. In the assay on MDA-MB-436 cells (Homo sapiens, 168 h), this compound returned a GI50 of 10 to 100 nM.

For the compound `COc1ncnc(C2CC2)c1-c1ncc2cc(-c3cnnn3C)c(=O)n(Cc3ccc(-c4nc(C(F)(F)F)cn4C4CC4)cc3)c2n1` [Compound I-159, 8-({4-[1-cyclopropyl-4-(trifluoromethyl)imidazol-2-yl]phenyl}methyl)-2-(4-cyclopropyl-6-methoxypyrimidin-5-yl)-6-(3-methyl-1,2,3-triazol-4-yl)pyrido[2,3-d]pyrimidin-7-one], in the assay on HCC1806 Ub-PCNA (USP1) (Homo sapiens), the concentration for half-maximal inhibition (IC50) is < 10 nM. Also, the 50% growth inhibitory concentration (GI50) in the assay with MDA-MB-436 cells (Homo sapiens, 168 h) is 10 to 100 nM.

In the assay on HCC1806 Ub-PCNA (USP1) (Homo sapiens), `CCc1ncnc(C2CC2)c1-c1ncc2ccc(=O)n(Cc3ccc(-c4nc(C(F)(F)F)cn4C)cc3)c2n1` [Compound 52, 2-(4-Cyclopropyl-6-Ethylpyrimidin-5-Yl)-8-({4-[1-Methyl-4-(Trifluoromethyl)Imidazol-2-Yl]Phenyl}Methyl)Pyrido[2,3-d]Pyrimidin-7-One] had an IC50 of 100 to 1000 nM. For the same compound, in the assay on MDA-MB-436 cells (Homo sapiens, 168 h), the GI50 was 100 to 1000 nM.

In turn, `COc1ncnc(C2CC2)c1-c1ncc2nc(-c3cn(C)cn3)c(=O)n(Cc3ccc(-c4nc(C(F)(F)F)cn4C4CC4)cc3)c2n1` [Compound I-160, 8-({4-[1-Cyclopropyl-4-(Trifluoromethyl)Imidazol-2-Yl]Phenyl}Methyl)-2-(4-Cyclopropyl-6-Methoxypyrimidin-5-Yl)-6-(1-Methylimidazol-4-Yl)Pteridin-7-One] registered an IC50 with HCC1806 Ub-PCNA (USP1) (Homo sapiens) of 10 to 100 nM. In the assay with MDA-MB-436 cells (Homo sapiens, 168 h), this compound showed a GI50 of 10 to 100 nM. For `Cc1cnn(C(C)C)c1-c1ncc2ccc(=O)n(Cc3ccc(-c4nc(C(F)(F)F)cn4C)cc3)c2n1` [Compound I-45, 2-(2-isopropyl-4-methylpyrazol-3-yl)-8-({4-[1-methyl-4-(trifluoromethyl)imidazol-2-yl]phenyl}methyl)pyrido[2,3-d]pyrimidin-7-one], the IC50 with HCC1806 Ub-PCNA (USP1) (Homo sapiens) is 10 to 100 nM. In addition, the 50% growth inhibitory concentration (GI50) in the assay with MDA-MB-436 cells (Homo sapiens, 168 h) was 10 to 100 nM. As for `COc1nn(C)cc1-c1cc2cnc(-c3c(OC)ncnc3C3CC3)nc2n(Cc2ccc(-c3nc(C(F)(F)F)cn3C3CC3)cc2)c1=O` [Compound I-164], the half-maximal inhibitory concentration (IC50) in the assay with HCC1806 Ub-PCNA (USP1) (Homo sapiens) is 10 to 100 nM. Moreover, the concentration for 50% growth inhibition (GI50) with MDA-MB-436 cells (Homo sapiens, 168 h) lay within 10 to 100 nM. For the compound `COc1ncnc(C2CC2)c1-c1ncc2ccc(=O)n(C(C)c3ccc(-c4nc(C(F)(F)F)cn4C)cc3)c2n1` (stereo not drawn) [Compound 63], the IC50 in the assay on HCC1806 Ub-PCNA (USP1) lay in the range of 10 to 100 nM. The GI50 in the assay on MDA-MB-436 cells was in the range of 10 to 100 nM. Consider `COc1ncnc(C2CC2)c1-c1ncc2cc(-c3cn(C)cn3)c(=O)n(Cc3ccc(-c4nc(C(F)(F)F)cn4C4CC4)cc3)c2n1` [Compound I-161, 8-({4-[1-cyclopropyl-4-(trifluoromethyl)imidazo]-2-yl]phenylmethyl)-2-(4-cyclopropyl-6-methoxypyrimidin-5-yl)-6-(1-methylimidazol-4-yl)pyrido[2,3-d]pyrimidin-7-one], for which the 50% inhibitory concentration (IC50) in the assay with HCC1806 Ub-PCNA (USP1) (Homo sapiens) was < 10 nM. In the assay on MDA-MB-436 cells (Homo sapiens, 168 h), this compound gave a 50% growth inhibitory concentration (GI50) of 10 to 100 nM. Regarding `COc1ncnc(C2CC2)c1-c1ncc2cc(-c3cncc(F)c3)c(=O)n(Cc3ccc(-c4nc(C(F)(F)F)cn4C4CC4)cc3)c2n1` [Compound I-162], the 50% inhibitory concentration (IC50) in the assay with HCC1806 Ub-PCNA (USP1) (Homo sapiens) was < 10 nM. Further, in the assay on MDA-MB-436 cells (Homo sapiens, 168 h), the GI50 was 10 to 100 nM.

For the compound `[2H]C([2H])([2H])Oc1ncnc(C2CC2)c1-c1ncc2ccc(=O)n(C([2H])([2H])c3ccc(-c4nc(C(F)(F)F)cn4C([2H])([2H])[2H])cc3)c2n1` [Compound 57, 2-[4-cyclopropyl-6-(2H3)methoxypyrimidin-5-yl]-8-({4-[1-(2H3)methyl-4-(trifluoromethyl)imidazol-2-yl]phenyl}(2H2)methyl)pyrido[2,3-d]pyrimidin-7-one], the concentration for half-maximal inhibition (IC50) with HCC1806 Ub-PCNA (USP1) (Homo sapiens) is < 10 nM. Also, in the assay with MDA-MB-436 cells (Homo sapiens, 168 h), the concentration for 50% growth inhibition (GI50) was < 10 nM. On to `COc1ncnc(C2CC2)c1-c1ncc2ccc(=O)n(C(C)c3ccc(-c4nc(C(F)(F)F)cn4C)cc3)c2n1` (stereo not drawn) [Compound 62], for which the half-inhibitory concentration (IC50) with HCC1806 Ub-PCNA (USP1) was 10 to 100 nM. In the assay with MDA-MB-436 cells, this compound came in with a GI50 of 10 to 100 nM.

For the compound `COc1ncnc(C2CC2)c1-c1ncc2ncc(=O)n(Cc3ccc(-c4nc(C(F)(F)F)cn4C(C)C)cc3)c2n1` [Compound I-29], the IC50 in the assay on HCC1806 Ub-PCNA (USP1) (Homo sapiens) is < 10 nM. Besides, in the assay on MDA-MB-436 cells (Homo sapiens, 168 h), the GI50 is < 10 nM. Consider `COc1ncnc(C2CC2)c1-c1ncc2ccc(=O)n(Cc3ccc(-c4nc(C(F)(F)F)c[nH]4)cc3)c2n1` [Compound 58, 2-(4-Cyclopropyl-6-Methoxypyrimidin-5-Yl)-8-({4-[4-(Trifluoromethyl)-1H-Imidazol-2-Yl]Phenyl}Methyl)Pyrido[2,3-d]Pyrimidin-7-One], for which the GI50 with MDA-MB-436 cells (Homo sapiens, 168 h) is 10 to 100 nM.
